According to EP0260606A2, “Medicament for curing neurotic disturbance or disorder comprising sialocylglycerolipid” (MECT CORPORATION, priority 1986, dated 1988):
Entries after “also recorded” stand apart in the source; their conditions may differ. Read-outs that look alike come from different tables or passages of the source.

Experiments:
[1] = tested on: neuroblastoma cell Neuro2a; assay: Effect on the neuroblastoma cell Neuro2a (formation and growth of axis-cylinder process); format: cell-based; details: for Length of Axis-cylinder Process / Number of Axis-cylinder Process: average ± S.E.
Description: The nervous cell used in the test was neuroblastoma cell Neuro2a which is readily available and can be cultured in a relatively simple manner.
Neuro2a was floated on a culture medium containing fetal cattle serum (hereinafter referred to as FCS), the culture medium consisting of 90% of Dubecco's Modified Eagle's Medium (hereinafter referred to as MEM) and l0% of FCS and added with l00 U/ml of penicillin G and l00 µg/ml of streptomycin sulfate, and cultured in a carbon dioxide cultivator at 37°C in an air containing 5% of carbon dioxide. The containers used were 60 mm polystyrene dishes, and each of the containers was incubated with l to 2 × l0⁴ cells followed by culturing for 48 hours prior to the test. […] After the lapse of 24 hours and 48 hours, the increase in cells formed with axis-cylinder process, the increase in number of axis-cylinder processes and the elongation of the length of the axis-cylinder process were measured.
The test was conducted while using three dishes for each concentration of each test material.

[2] = tested on: rats having their sciatic nerves crushed; assay: Curing effect on rats with crushed sciatic nerve (distance between toes, weight of musculi soleus); format: in vivo, rat; details: for Recovery Rate (%) in Distance between the Fingers / Recovery Rate (%) in Weight of the Muscle: ip once per day, average ± S.D.; for Recovery Rate (%) in Weight of the Muscle: 28th Day
Description: The curing effect of the compound (I) of the invention on the rats having their sciatic nerves crushed, which were used as models caused by peripheral nervous disturbances, was assessed by examining (l) the change in action of the crushed hind leg and (2) the change in weight of the muscle as indicators for the modification of peripheral nerve and for the recovery course of the disturbance.
In the experiment, seven male Wister family rats (6 weeks age) were used per a group. The sciatic nerve of each rat was crushed in accordance with the method of Yamazu et al. (see Kiyomi Yamazu, Takenori Kaneko, Akifumi Kitahara and Isao Ohkawa, Journal of Japanese Pharmacological Society, 72, 259 - -268 (l976)) and in accordance with the method of Hasegawa et al. (see Kazuo Hasegawa, Naoji Mikuni and Yutaka Sakai, Journal of Japanese Pharmacological Society, 74, 72l - 734 (l978)). Specifically, under anesthesia with Pentobarbital (40 mg/kg, i.p.), the left sciatic nerve was exposed at the femur and the site 5 mm centrally from the branch portion between the N. tibialis and the N. suralis was crushed using a modified artery klemme having a width of 2 mm and gap of 0.l mm. Rats subjected to the operation were randomly dispensed to form the groups subjected to test.
The compound (I) of the invention was intraperitoneally administered one time per day from the day on which the nerve was crushed to the 22nd day. The control groups included a group administered with Mecobalamin (produced by Gedeon Richter Ltd.), a group administered with a 20% aqueous solution of propylene glycol (hereinafter referred to as 20% PG) which was used to dissolve the compound (I) of the invention, and a group administered with a 0.9% aqueous saline solution. The predetermined measurements were conducted with the lapse of time after the crushing operation (at the first, fourth, seventh, tenth, l4th, l5th, l7th, l9th 2lst and 28th days).
The distance between the toes was measured, since this is a good indicator showing the modification and recovery of the function of the nerve and the change thereof could conveniently measured with the lapse of time.
The measurement was conducted in accordance with the method of Hasegawa, (Hasegawa, K., Experientia, 34, 750 - 75l (l978)) by measuring the distance from the first toe to the fifth toe of the hind leg.
The ratio of the distance at the crushed side to the distance at the normal side was calculated as a percentage (%), the average values and the standard deviations (S.D.) being shown in Table 5.
It is known that removal of or disturbance in a certain nerve causes atrophy of the muscle controlled by the nerve, and the atrophy is gradually recovered by the recontrol by the nerve. For this reason, the quantitative change in weight of the muscle was selected as an indicator. At 28th day after the operation, the muscli soleus of both hind legs were extracted under anesthesia with Pentobarbital, and the weights of the muscles were weighed. The weight ratio of the muscli soleus at the crushed side to the muscli soleus at the normal side was calculated and represented by percentage (%).

Acute toxicity test = format: in vivo; details: mouse, in vivo, mortality at the 7th day, Probit method, read-out: LD₅₀
Description: (§1) The compound (I) was administered through two administration routes, i.e. orally and intravenous injection, to the groups each consisting of five male ddy mice, while increasing the dosage amounts little by little.
(§2) From the time immediately after the administration to the lapse of 7 days, the general syndrome and death of the mice were inspected. The medial lethal dose (LD₅₀) was calculated, through the Probit method, from the mortality rate at the 7th day from the beginning of administration. LD₅₀ = 58l mg/kg (through intraveous injection) 5000 mg/kg (through oral administration)

male ddy mice = assay: Acute toxicity test; format: in vivo; details: result in words
Description: as §1, §2

[3] = in consideration of the molecular weights, 48 hour cultivation

## CCCCCCCCCCCCCCOCC(COC1(C(=O)O)CC(O)C(NC(C)=O)C(C(O)C(O)CO)O1)OCCCCCCCCCCCCCC (stereo not shown) [Compound (I)]
[1]; 24 hours, 0.01 µg/ml
  Number of Cells Formed with Axis-cylinder Process: 184
  Ratio of Cells Formed with Axis-cylinder Process: 44.7%
  Total Number of Cells: 412
  Length of Axis-cylinder Process: 107.5 ± 4.56 µm/cell
  Number of Axis-cylinder Process: 1.2 ± 0.03 per cell
[1]; 24 hours, 0.1 µg/ml
  Number of Cells Formed with Axis-cylinder Process: 188
  Ratio of Cells Formed with Axis-cylinder Process: 50.9%
  Total Number of Cells: 369
  Length of Axis-cylinder Process: 111.4 ± 4.60 µm/cell
  Number of Axis-cylinder Process: 1.2 ± 0.03 per cell
[1]; 24 hours, 1 µg/ml
  Number of Cells Formed with Axis-cylinder Process: 214
  Ratio of Cells Formed with Axis-cylinder Process: 63.5%
  Total Number of Cells: 337
  Length of Axis-cylinder Process: 158.7 ± 6.94 µm/cell
  Number of Axis-cylinder Process: 1.0 ± 0.02 per cell
[1]; 24 hours, 10 µg/ml
  Number of Cells Formed with Axis-cylinder Process: U.C.
  Total Number of Cells: U.C.
  Length of Axis-cylinder Process: U.C.
  Number of Axis-cylinder Process: U.C.
[1]; 48 hours, 0.01 µg/ml
  Number of Cells Formed with Axis-cylinder Process: 249
  Ratio of Cells Formed with Axis-cylinder Process: 50.7%
  Total Number of Cells: 491
  Length of Axis-cylinder Process: 117.1 ± 4.94 µm/cell
  Number of Axis-cylinder Process: 1.2 ± 0.03 per cell
[1]; 48 hours, 0.1 µg/ml
  Number of Cells Formed with Axis-cylinder Process: 258
  Ratio of Cells Formed with Axis-cylinder Process: 55.6%
  Total Number of Cells: 464
  Length of Axis-cylinder Process: 128.8 ± 5.71 µm/cell
  Number of Axis-cylinder Process: 1.2 ± 0.03 per cell
[1]; 48 hours, 1 µg/ml
  Number of Cells Formed with Axis-cylinder Process: 248
  Ratio of Cells Formed with Axis-cylinder Process: 61.4%
  Total Number of Cells: 404
  Length of Axis-cylinder Process: 154.7 ± 5.99 µm/cell
  Number of Axis-cylinder Process: 1.1 ± 0.03 per cell
[1]; 48 hours, 10 µg/ml
  Number of Cells Formed with Axis-cylinder Process: U.C.
  Total Number of Cells: U.C.
  Length of Axis-cylinder Process: U.C.
  Number of Axis-cylinder Process: 1 U.C.
[1]; Mus musculus, N2a, 48 hour cultivation
  minimal effective concentration: 0.01 µg/mL
[1]; [3]
  activity relative to GM₁: 500 times
  activity relative to GQ1b: 300 times
[1]; result in words, compared with the control group
  effect on growth of the axis-cylinder process: significant effect of promoting the growth of the axis-cylinder process; also recorded: extremely high activity for promoting growth or elongation of axis-cylinder process
[2]; 17th Day, 3 mg/kg, crushed side / normal side
  Recovery Rate (%) in Distance between the Fingers: 71.5 ± 5.5 %
[2]; 17th Day, 30 mg/kg
  Recovery Rate (%) in Distance between the Fingers: 80.4 ± 9.6 %
[2]; 19th Day, 3 mg/kg
  Recovery Rate (%) in Distance between the Fingers: 82.1 ± 9.7%
[2]; 19th Day, 30 mg/kg
  Recovery Rate (%) in Distance between the Fingers: 90.3 ± 4.4 %
[2]; 3 mg/kg, musculi soleus, crushed side / normal side
  Recovery Rate (%) in Weight of the Muscle: 82.8 ± 6.7%
[2]; 30 mg/kg
  Recovery Rate (%) in Weight of the Muscle: 89.1 ± 5.7%
[2]; result in words
  recovery of the distance between the toes and the weight of the musculi soleus: promoted the recovery to the normal values
Acute toxicity test; intravenous injection
  LD50 at 168 h: 581 mg/kg
Acute toxicity test; oral administration
  LD50 at 168 h: 5000 mg/kg
Male ddy mice
  toxicity: extremely low toxicity
